Patent publication US9358281B2, “Methods, agents and peptides for inducing an innate immune response in HIV vaccination” (New York University, priority 2009, dated 2016)
Entries after “also recorded” stand apart in the source; their conditions may differ. Like-named read-outs stand apart in the source and are kept apart here.

Tests used:
Format in all cases: cell-based, human
[1] = tested on: monocyte-derived dendritic cells (MDDC); conditions: for effect on MDDC activation (CD86 in GFP+) by HIVGFP(G)+SIVVLP(G): inhibitor added within the first 24 hours of infection
[2] = tested on: STAT1; assay: Immunoblot of phospho-STAT1 over time in MDDC; conditions: after treatment or infection
Protocol: (§1) Western blot analysis: Cells were lysed in 1% NP-40, 50 mM Tris pH 8, 120 mM NaC, 4 mM EDTA, 50 mM NaF, 1 mM NA3VO4 and a protease inhibitors cocktail (Roche). Total lysates were resolved on SDS-PAGE, transferred to PVDF membranes and probed with primary antibodies and corresponding HRP-conjugated secondary antibodies.
as §1, with “NaCl,” for “NaC,”, “inhibitor” for “inhibitors”, “antibodies (GE Healthcare).” for “antibodies.”

[3] = tested on: naive CD4+ T cells; assay: Naive T cell proliferation assay (CFSE dilution) with infected DC and anti-CD3; conditions: 25 μM AZT or 1 μM SCY
Protocol: Naive T cell proliferation assay: 48 h after infection, naive T cells were labeled with CFSE (eBioscience) as described previously (Antons et al., 2008). DC were infected with dilutions of SIVVLP(G) and pLaiΔEnv-GFP3(G) WT (indicated as HIVGFP(G)) or G89V. AZT was added at the time of infection and SCY was added from 3 to 8 hours after infection. 48 hours after infection, half of the DC was processed for surface staining and cytometry. The other half was washed with media and resuspended in fresh media without cytokines. 20,000 T cells were mixed with DC at a DC to T ratio of 1:5 and 1:15. Cells were stimulated by dilutions of anti-CD3 (OKT3 hybridoma supernatant, approximately 1-100 ng/ml) in a total volume of 150 to 200 μl in round bottom 96-well plates. Cells were harvested and analyzed by flow cytometry at day 4 or day 5 postactivation.

Row | Compound | effect on LPS- or poly(I:C)-induced CD86 up-regulation [1] | effect on MDDC activation (CD86 in GFP+) by HIVGFP(G)+SIVVLP(G) [1] | effect on MDDC activation (CD86 in GFP+) by HIVGFP(G)+SIVVLP(G) ([1]; listed as Raltegravir) | time at which STAT1 phosphorylation was present [2] | ability of treated, HIVGFP(G) and SIVVLP(G) infected DC to induce proliferation [3]
1 | Cc1nnc(C(=O)NC(C)(C)c2nc(C(=O)NCc3ccc(F)cc3)c(O)c(=O)n2C)o1 [RAL, Raltegravir] | had no effect | blocked activation | inhibited transduction efficiency and MDDC activation |  | 
2 | lipopolysaccharide [LPS] |  |  |  | 2 h | 
3 | Cc1cn([C@H]2C[C@H](N=[N+]=[N-])[C@@H](CO)O2)c(=O)[nH]c1=O [AZT, Zidovudine] | had no effect | blocked activation; also recorded: inhibited transduction efficiency and MDDC activation |  |  | reduced ability to induce proliferation
